Test results as given in article PMC12406203 (Journal of Medicinal Chemistry, 2025).

Columns and labels:
[1] = for Pe ± SEM: BBB-PAMPA, pH 7.4, n = 2 novel compounds, n = 3 reference drugs; for CNS (+/–): predicted BBB permeation from Pe
[2] = system: TLR4, COX-2, NLRP3, cPLA2 levels in brains of LPS-treated mice; assay: Western blot of brains of LPS-treated mice (ex vivo); type: in vivo; conditions: 94, 95: 10 mg/kg i.p.; rivastigmine 1 mg/kg i.p.; vs LPS-treated control
Experimental: After the completion of cognitive assays carried out in the LPS model, the mice were sacrificed, and their brains were collected and stored for further analysis. In the ex vivo part of the study, murine brains were homogenized using T-PER mammalian protein extraction reagent (Thermo Fisher Scientific, Waltham, MA, USA) with protease (Merck Millipore, Burlington, MA, USA) and phosphatase inhibitors (Cayman Chemical, Ann Arbor, MI, USA). The total protein concentrations were determined using the Bradford reaction. Forty μg of the total proteins were solubilized in Laemmli buffer with 2% 2-mercaptoethanol and were subject to 10% SDS-polyacrylamide gel electrophoresis. The anticyclooxygenase 2 (COX-2, diluted 1:1000), antitoll-like receptor 4 (TLR4, diluted 1:1000), anticytosolic phospholipase A2 (cPLA2, 1:1000), and anti-inflammasome (NLPR3, diluted 1:500) were used (Thermo Fisher Scientific, Waltham, MA, USA). The endogenous control was β-actin (1:1000) (Thermo Fisher Scientific, Waltham, MA, USA). The secondary antibody was antirabbit IgG (HRP) diluted 1:2000 (Thermo Fisher Scientific, Waltham, MA, USA). Proteins were detected using the Clarity Western ECL Luminol Substrate (Bio-Rad, Hercules, CA, USA). Chemi Doc Camera with Image Lab 6.1 software (Bio-Rad) was used to quantify the integrated optical density of the bands. The results were normalized to the data obtained for β-actin after stripping the PVDF membrane using Restore Western Blot Stripping Buffer (Thermo Fisher Scientific, Waltham, MA, USA) and expressed as relative to the control. This thorough process ensures the validity and reliability of the results.

[3] = system: scopolamine-induced cognitive deficits in mice; assay: Novel object recognition task, scopolamine-induced amnesia; type: in vivo; conditions: for efficacy in NOR task: 5 mg/kg i.p., scopolamine model; for preference for the novel object (NOR task): 10 mg/kg i.p., vs mice treated with scopolamine alone
Excerpt: In the scopolamine model, the PA and NOR tasks were used for dose selection for further testing.
The mice had unlimited access to food and water prior to the experiment. Specified conditions for the maintenance of mice were ensured throughout the experiment, including tree bedding (Transwior, Poland) and cage enrichment (tunnels, nesting material, wooden igloos, etc.). For behavioral tests, the mice were selected randomly; each group consisted of 7–10 mice. […] The procedures for maintenance and treatment of laboratory animals were approved by the first Local Ethics Committee in Krakow (Approval No. 645/2022, 760/2023, and 829/2024 and the treatment of animals was in full accordance with ethical standards laid down in respective Polish and EU regulations (Directive 2010/63/EU).
Scopolamine hydrobromide (Sigma-Aldrich, Poland) at the dose of 1 mg/kg was used to induce learning and memory deficits. For the in vivo tests, scopolamine was prepared in distilled water (Polfa Kutno, Poland) and was administered subcutaneously (s.c.) 30 min before behavioral tests during the acquisition (training) trial of PA and NOR tasks. […] They were administered intraperitoneally (i.p.) 60 min before the acquisition trial of the PA, NOR, and MWM tasks.
The experiment was conducted in opaque black boxes with dimensions of 50 × 50 × 50 cm. The 3 day procedure consists of habituation to the test arena (without any objects) for 10 min on the first day (T0), a training trial (T1), and a testing trial (T2) separated by a 24 h intertrial interval. During T1 (familiarization trial), two identical objects (A and B) were presented in the opposite corners of the arena, approximately 5 cm from its walls. During T2 (recognition trial), one of the objects (B) was replaced by a novel object (C), so that the animals were presented with A (familiar) and C (novel) objects. Both T1 and T2 trials lasted for 10 min, and after each trial, the animals returned to their home cages. White plastic round containers (height 5 cm, diameter 5 cm) attached to the ground with double-sided tape were used as the A, B objects, and green cuboids of similar height were used as object C. The objects were stable enough so that the animals could not displace them. The sequence of presentations and the location of the objects were randomly assigned to each mouse. The animals explored the objects by looking, licking, sniffing, or touching them while sniffing, but not when leaning against, standing, or sitting on the objects. Any mouse exploring the two objects for less than 5 s within the 10 min duration of T1 or T2 was eliminated from the study. An experimenter, blind to the drug treatment, measured the exploration time of the objects.

[4] = system: ABL1(T315I)-phosphorylated
hBChE in SH-SY5Y cells = target: T1, hBChE in SH-SY5Y cells (Homo sapiens, UniProt P06276); assay: hBChE inhibition assay in SH-SY5Y cells; type: cell-based; conditions: 10 and 1 μM; compared with control ethopropazine
T1 construct: endogenous in cells; host or cells: SH-SY5Y human neuroblastoma cells
T1 sequence (P06276 29-602): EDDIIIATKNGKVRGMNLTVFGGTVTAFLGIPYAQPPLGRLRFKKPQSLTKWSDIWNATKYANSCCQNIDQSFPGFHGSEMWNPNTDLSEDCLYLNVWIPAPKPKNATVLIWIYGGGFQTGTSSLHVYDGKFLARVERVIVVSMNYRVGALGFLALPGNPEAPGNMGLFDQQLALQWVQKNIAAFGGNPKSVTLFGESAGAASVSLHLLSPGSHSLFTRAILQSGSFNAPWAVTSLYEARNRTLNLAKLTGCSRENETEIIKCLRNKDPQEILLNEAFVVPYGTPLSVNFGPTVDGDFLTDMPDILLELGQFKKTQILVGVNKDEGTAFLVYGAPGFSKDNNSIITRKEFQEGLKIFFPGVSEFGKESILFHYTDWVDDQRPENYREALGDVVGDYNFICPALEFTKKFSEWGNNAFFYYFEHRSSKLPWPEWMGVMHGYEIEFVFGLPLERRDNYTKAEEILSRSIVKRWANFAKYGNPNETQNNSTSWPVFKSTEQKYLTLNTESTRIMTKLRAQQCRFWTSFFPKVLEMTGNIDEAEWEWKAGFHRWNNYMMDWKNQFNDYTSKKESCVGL
Experimental: hBChE activity in live whole SH-SY5Y cells was measured by the modified procedure of Onder and colleagues. Briefly, after centrifugation, the complete medium was removed and cells were suspended in PBS warmed to 37 °C. 50 μL of this suspension was added to a 96-well plate so that each well contained approximately 360,000 cells. 81 μL of 0.5 mM 5,5′-dithiobis (2-nitrobenzoic acid) in 0.1 M potassium phosphate buffer (pH 7.0) was added, followed by 2 μL of DMSO solutions of compounds 94, 95, or ethopropazine (positive control). The reaction was initiated by the addition of 67 μL of 1 mM acetylthiocholine. The total reagent volume in each well was 200 μL. The microplate was covered with a lid to minimize evaporation while absorbance at 412 nm was recorded over a period of 120 min with a 30 s interval on a Tecan Spark microplate reader (Tecan Austria GmbH, Salzburg, Austria) set to 24 °C. Autohydrolysis rates of butyrylthiocholine were measured in wells that contained all reagents + PBS with no cells. The residual activity of hBChE was then calculated by the protocol described above.

LPS-treated mice = assay: Morris water maze task, LPS model of neuroinflammation; type: in vivo; conditions: 10 mg/kg i.p.; for escape latency, acquisition phase (days 1–6) of MWM: from day 2 (94) or day 3 (95) to day 6, vs LPS alone
Experimental: The compounds were administered for 10 consecutive days, and on the last 6 days of their administration, LPS was also administered intraperitoneally 5 h before the test compounds. On these 6 days, the acquisition phase of the MWM task was performed. One day later, the retention, drug-off trial of the MWM task was carried out.
In the LPS model adult male C57BL/6J mice (Animal Breeding Farm of the Faculty of Pharmacy, Jagiellonian University Medical College) of similar weight and age were used. […] The mice had unlimited access to food and water prior to the experiment. Specified conditions for the maintenance of mice were ensured throughout the experiment, including tree bedding (Transwior, Poland) and cage enrichment (tunnels, nesting material, wooden igloos, etc.). For behavioral tests, the mice were selected randomly; each group consisted of 7–10 mice. […] After in vivo tests, the animals were immediately euthanized, and their tissues were collected and stored for further ex vivo testing.
LPS (Lipopolysaccharide from Escherichia coli O111:B4, Sigma-Aldrich, Poland) was used to induce neuroinflammation in mice. […] They were administered intraperitoneally (i.p.) 60 min before the acquisition trial of the PA, NOR, and MWM tasks. […] In the rotarod, locomotor activity, and MWM tests, only one dose effective in the scopolamine model of amnesia was evaluated.
The Morris water maze is a circular, plastic, and gray-painted pool (120 cm in diameter and 60 cm in height), filled with water (up to about 48 cm below the edge to prevent an animal from jumping out), maintained at 23 ± 1 °C. The pool was divided into four equal quadrants (compass locations: NE, NW, SE, SW) by a computerized video tracking system (SMART, ver. 3.0; Panlab, Spain). An escape platform (11 cm in diameter and 47 cm in height) at a fixed location (the center of the NW quadrant, i.e., the target quadrant) was made of transparent Plexiglas, being invisible to the swimming animal, and was immersed 1 cm under the surface of water. The maze was lighted with an intensity of 45 lx. […] The time taken to reach the hidden platform (escape latency) on days 1–6 was recorded for each mouse and analyzed. Each animal was released from a different starting point and was allowed to swim for 60 s. […] On the seventh day (a drug-off trial conducted 24 h after the last training trial), the platform was removed from the pool, and a probe trial was performed (without drug treatmentassessment of memory retention).

In the case of `CN(C)CCNC(=O)c1cc2c(cnn2CC2CCCCC2)cc1Cc1ccc(F)cc1F` [Compound 95, 1-(Cyclohexylmethyl)-5-(2,4-difluorobenzyl)-N-(2-(dimethylamino)ethyl)-1H-indazole-6-carboxamide], the RA @ 1000nM (CDK3) is reported as 100%, the RA @ 10000nM (CDK3) is reported as 100% and the RA @ 1000nM (ABL1-phosphorylated) is reported as 81%. For the same compound, the RA @ 10000nM (ABL1-phosphorylated) was 85%, the “Pe ± SEM” value [1] was 13.2 ± 1.1 ×10–6 cm/s and the “CNS (+/–)” value [1] was “CNS+ (CNS+ indicates high predicted BBB permeation [Pe (×10–6 cm/s) > 4.0])”. For the same compound, the RA @ 1000nM (FGFR3) was 100%, the RA @ 10000nM (FGFR3) was 92% and the RA @ 1000nM (PLK4) was 100%. For the same compound, the RA @ 10000nM (PLK4) was 100%, the RA @ 1000nM (ERBB2) was 84% and the RA @ 10000nM (ERBB2) was 78%. The RA @ 1000nM (PDGFRB) was 100%, the RA @ 10000nM (PDGFRB) was 96% and the RA @ 1000nM (LKB1) was 100%. It also gave an RA @ 10000nM (LKB1) of 86%, an RA @ 1000nM (GSK3B) of 100% and an RA @ 10000nM (GSK3B) of 80%. For the same compound, the “brain cPLA2 expression” value [2] was “no difference”, the “brain levels of TLR4, COX-2, and NLRP3” value [2] was “significantly lower levels” and the RA @ 1000nM (CDK7) was 88%. The RA @ 10000nM (CDK7) was 77%, the RA @ 1000nM (DCAMKL1) was 100% and the RA @ 10000nM (DCAMKL1) was 100%. For the same compound, the RA @ 1000nM (CSNK1G2) was 100%, the RA @ 10000nM (CSNK1G2) was 98% and the RA @ 1000nM (AURKA) was 95%. It also gave an RA @ 10000nM (AURKA) of 93%, an RA @ 1000nM (KIT(V559D,T670I)) of 47% and an RA @ 10000nM (KIT(V559D,T670I)) of 94%. For the same compound, the RA @ 1000nM (EGFR(L858R)) was 100%, the RA @ 10000nM (EGFR(L858R)) was 100% and the RA @ 1000nM (JNK3) was 48%. It also gave an RA @ 10000nM (JNK3) of 3.7%, an RA @ 1000nM (ROCK2) of 83% and an RA @ 10000nM (ROCK2) of 100%. For the same compound, the RA @ 1000nM (ABL1-nonphosphorylated) was 90%, the RA @ 10000nM (ABL1-nonphosphorylated) was 90% and the RA @ 1000nM (PIK3CG) was 92%. It also gave an RA @ 10000nM (PIK3CG) of 97%, an RA @ 1000nM (RAF1) of 100% and an RA @ 10000nM (RAF1) of 100%. The RA @ 1000nM (KIT) was 100%, the RA @ 10000nM (KIT) was 100% and the “efficacy in NOR task” value [3] was “statistically ineffective”. For the same compound, the “preference for the novel object (NOR task)” value [3] was “statistically significant preference for the novel object”, the RA @ 1000nM [4] was 72% and the RA @ 10000nM [4] was 91%. For the same compound, the RA @ 1000nM (AXL) was 84%, the RA @ 10000nM (AXL) was 83% and the “hBChE inhibition in SH-SY5Y human neuroblastoma cell line” value (hBChE in SH-SY5Y cells) was “outperformed the control ethopropazine”. The RA @ 1000nM (BRAF) was 100%, the RA @ 10000nM (BRAF) was 100% and the RA @ 1000nM (IKKβ) was 93%. The RA @ 10000nM (IKKβ) was 80%, the “escape latency, acquisition phase (days 1–6) of MWM” value (LPS-treated mice) was “statistically significant decrease in escape latency” and the “latency to NW zone entry (MWM day 7, drug-off)” value (LPS-treated mice; vs LPS-treated control, p < 0.05) was “statistically significant difference”. For the same compound, the RA @ 1000nM (MKNK2) was 81%, the RA @ 10000nM (MKNK2) was 67% and the RA @ 1000nM (p38β) was 84%. For the same compound, the RA @ 10000nM (p38β) was 18%.

Work on `CC(C)Cn1ncc2cc(Cc3ccc(F)cc3F)c(C(=O)NCCN(C)C)cc21` [Compound 94, 5-(2,4-Difluorobenzyl)-N-(2-(dimethylamino)ethyl)-1-isobutyl-1H-indazole-6-carboxamide] yielded an RA @ 1000nM (CDK3) of 100%, an RA @ 10000nM (CDK3) of 1.3% and an RA @ 1000nM (ABL1-phosphorylated) of 79%. The RA @ 10000nM (ABL1-phosphorylated) was 53%, the “Pe ± SEM” value [1] was 10.4 ± 0.01 ×10–6 cm/s and the “CNS (+/–)” value [1] was “CNS+ (CNS+ indicates high predicted BBB permeation [Pe (×10–6 cm/s) > 4.0])”. For the same compound, the RA @ 1000nM (FGFR3) was 100%, the RA @ 10000nM (FGFR3) was 100% and the RA @ 1000nM (PLK4) was 100%. For the same compound, the RA @ 10000nM (PLK4) was 100%, the RA @ 1000nM (ERBB2) was 74% and the RA @ 10000nM (ERBB2) was 81%. It also gave an RA @ 1000nM (PDGFRB) of 100%, an RA @ 10000nM (PDGFRB) of 97% and an RA @ 1000nM (LKB1) of 100%. The RA @ 10000nM (LKB1) was 96%, the RA @ 1000nM (GSK3B) was 91% and the RA @ 10000nM (GSK3B) was 97%. The “brain cPLA2 expression” value [2] was “no difference”, the “brain levels of TLR4, COX-2, and NLRP3” value [2] was “significantly lower levels” and the RA @ 1000nM (CDK7) was 79%. For the same compound, the RA @ 10000nM (CDK7) was 86%, the RA @ 1000nM (DCAMKL1) was 100% and the RA @ 10000nM (DCAMKL1) was 100%. It also gave an RA @ 1000nM (CSNK1G2) of 96%, an RA @ 10000nM (CSNK1G2) of 93% and an RA @ 1000nM (AURKA) of 96%. For the same compound, the RA @ 10000nM (AURKA) was 93%, the RA @ 1000nM (KIT(V559D,T670I)) was 100% and the RA @ 10000nM (KIT(V559D,T670I)) was 100%. For the same compound, the RA @ 1000nM (EGFR(L858R)) was 100%, the RA @ 10000nM (EGFR(L858R)) was 66% and the RA @ 1000nM (JNK3) was 55%. For the same compound, the RA @ 10000nM (JNK3) was 6.8%, the RA @ 1000nM (ROCK2) was 87% and the RA @ 10000nM (ROCK2) was 96%. The RA @ 1000nM (ABL1-nonphosphorylated) was 85%, the RA @ 10000nM (ABL1-nonphosphorylated) was 97% and the RA @ 1000nM (PIK3CG) was 86%. It also gave an RA @ 10000nM (PIK3CG) of 85%, an RA @ 1000nM (RAF1) of 100% and an RA @ 10000nM (RAF1) of 100%. The RA @ 1000nM (KIT) was 100%, the RA @ 10000nM (KIT) was 100% and the “efficacy in NOR task” value [3] was “statistically ineffective”. The “preference for the novel object (NOR task)” value [3] was “statistically significant preference for the novel object”, the RA @ 1000nM [4] was 93% and the RA @ 10000nM [4] was 90%. For the same compound, the RA @ 1000nM (AXL) was 97%, the RA @ 10000nM (AXL) was 89% and the “hBChE inhibition in SH-SY5Y human neuroblastoma cell line” value (hBChE in SH-SY5Y cells) was “outperformed the control ethopropazine”. It also gave an RA @ 1000nM (BRAF) of 100%, an RA @ 10000nM (BRAF) of 100% and an RA @ 1000nM (IKKβ) of 89%. The RA @ 10000nM (IKKβ) was 89%, the “escape latency, acquisition phase (days 1–6) of MWM” value (LPS-treated mice) was “statistically significant decrease in escape latency from day 2” and the RA @ 1000nM (MKNK2) was 76%. For the same compound, the RA @ 10000nM (MKNK2) was 80%, the RA @ 1000nM (p38β) was 72% and the RA @ 10000nM (p38β) was 15%.
